From ChEMBL document CHEMBL4482301, “Methods to identify modulators” (2012)

What was measured:
Format in all cases: functional, cell-based
[1] = target: T1, Taste receptor type 2 member 7 (Homo sapiens) (UniProt Q9NYW3); assay: Agonist activity at N-terminal rat ST3 receptor-fused full length human TAS2R7 transiently expressed in HEK293T cells co-expressing Galpha16gust44 assessed as increase in intracellular calcium level by measuring deltaF/F0 ratio level by Fluo-4AM dye based FLIPR assay
T1 sequence (whole entry): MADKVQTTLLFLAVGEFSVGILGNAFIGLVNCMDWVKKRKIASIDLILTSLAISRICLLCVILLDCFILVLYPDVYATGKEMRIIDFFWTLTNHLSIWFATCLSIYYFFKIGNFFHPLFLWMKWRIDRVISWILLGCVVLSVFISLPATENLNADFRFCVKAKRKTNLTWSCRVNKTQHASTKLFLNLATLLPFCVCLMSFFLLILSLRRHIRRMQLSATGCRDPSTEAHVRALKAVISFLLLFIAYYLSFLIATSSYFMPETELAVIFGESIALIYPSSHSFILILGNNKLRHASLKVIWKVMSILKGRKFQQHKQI

[2] = target: T1, Taste receptor type 2 member 7 (Homo sapiens); assay: (§1) Agonist activity at N-terminal rat ST3 receptor-fused full length human TAS2R7 transiently expressed in HEK293T cells co-expressing Galpha16gust44 assessed as increase in intracellular calcium level by measuring deltaF/F0 ratio level at 2.60 mM by Fluo-4AM dye based FLIPR assay
[3] = target: T1, Taste receptor type 2 member 7 (Homo sapiens); assay: (§2) Agonist activity at N-terminal rat ST3 receptor-fused full length human TAS2R7 transiently expressed in HEK293T cells co-expressing Galpha16gust44 assessed as increase in intracellular calcium level by measuring deltaF/F0 ratio level at 0.65 mM by Fluo-4AM dye based FLIPR assay
[4] = target: T1, Taste receptor type 2 member 7 (Homo sapiens); assay: (§3) Agonist activity at N-terminal rat ST3 receptor-fused full length human TAS2R7 transiently expressed in HEK293T cells co-expressing Galpha16gust44 assessed as increase in intracellular calcium level by measuring deltaF/F0 ratio level at 1.3 mM by Fluo-4AM dye based FLIPR assay
[5] = target: T1, Taste receptor type 2 member 7 (Homo sapiens); assay: as §3, with “stably” for “transiently”, “assay (reference value: 0.53 +/- 0.1)” for “assay”
[6] = target: T1, Taste receptor type 2 member 7 (Homo sapiens); assay: (§4) Agonist activity at N-terminal rat ST3 receptor-fused full length human TAS2R7 transiently expressed in HEK293T cells co-expressing Galpha16gust44 assessed as increase in intracellular calcium level by measuring deltaF/F0 ratio level at 0.02 mM by Fluo-4AM dye based FLIPR assay
[7] = target: T1, Taste receptor type 2 member 7 (Homo sapiens); assay: (§5) Agonist activity at N-terminal rat ST3 receptor-fused full length human TAS2R7 transiently expressed in HEK293T cells co-expressing Galpha16gust44 assessed as increase in intracellular calcium level by measuring deltaF/F0 ratio level at 0.16 mM by Fluo-4AM dye based FLIPR assay
[8] = target: T1, Taste receptor type 2 member 7 (Homo sapiens); assay: as §1, with “stably” for “transiently”, “0.33” for “2.60”, “assay (reference value: 0.34 +/- 0.06)” for “assay”
[9] = target: T1, Taste receptor type 2 member 7 (Homo sapiens); assay: (§6) Agonist activity at N-terminal rat ST3 receptor-fused full length human TAS2R7 transiently expressed in HEK293T cells co-expressing Galpha16gust44 assessed as increase in intracellular calcium level by measuring deltaF/F0 ratio level at 0.04 mM by Fluo-4AM dye based FLIPR assay
[10] = target: T1, Taste receptor type 2 member 7 (Homo sapiens); assay: (§7) Agonist activity at N-terminal rat ST3 receptor-fused full length human TAS2R7 transiently expressed in HEK293T cells co-expressing Galpha16gust44 assessed as increase in intracellular calcium level by measuring deltaF/F0 ratio level at 0.01 mM by Fluo-4AM dye based FLIPR assay
[11] = target: T1, Taste receptor type 2 member 7 (Homo sapiens); assay: (§8) Agonist activity at N-terminal rat ST3 receptor-fused full length human TAS2R7 transiently expressed in HEK293T cells co-expressing Galpha16gust44 assessed as increase in intracellular calcium level by measuring deltaF/F0 ratio level at 0.08 mM by Fluo-4AM dye based FLIPR assay
[12] = target: T1, Taste receptor type 2 member 7 (Homo sapiens); assay: as §6, with “stably” for “transiently”, “assay (reference value: 0.08 +/- 0.03)” for “assay”
[13] = target: T1, Taste receptor type 2 member 7 (Homo sapiens); assay: as §7, with “stably” for “transiently”, “assay (reference value: 0.09 +/- 0.04)” for “assay”
[14] = target: T1, Taste receptor type 2 member 7 (Homo sapiens); assay: as §2, with “stably” for “transiently”, “assay (reference value: 0.41 +/- 0.14)” for “assay”
[15] = target: T1, Taste receptor type 2 member 7 (Homo sapiens); assay: as §5, with “stably” for “transiently”, “assay (reference value: 0.15 +/- 0.06)” for “assay”
[16] = target: T1, Taste receptor type 2 member 7 (Homo sapiens); assay: as §4, with “stably” for “transiently”, “assay (reference value: 0.08 +/- 0.03)” for “assay”
[17] = target: T1, Taste receptor type 2 member 7 (Homo sapiens); assay: Agonist activity at N-terminal rat ST3 receptor-fused full length human TAS2R7 transiently expressed in HEK293T cells co-expressing Galpha16gust44 assessed as increase in intracellular calcium level by measuring deltaF/F0 ratio level at 0.33 mM by Fluo-4AM dye based FLIPR assay
[18] = target: T1, Taste receptor type 2 member 7 (Homo sapiens); assay: as §8, with “stably” for “transiently”, “assay (reference value: 0.1 +/- 0.04)” for “assay”
[19] = target: T1, Taste receptor type 2 member 7 (Homo sapiens); assay: as §1, with “stably” for “transiently”, “assay (reference value: 0.65 +/- 0.13)” for “assay”

| Activity [1] | Ratio [2] | Ratio [3] | Ratio [4] | Ratio [5] | Ratio [6] | Ratio [7] | Ratio [8] | Ratio [9] | Ratio [10] | Ratio [11] | Ratio [12] | Ratio [13] | Ratio [14] | Ratio [15] | Ratio [16] | Ratio [17] | Ratio [18] | Ratio [19] | SMILES |
| --- | --- | --- | --- | --- | --- | --- | --- | --- | --- | --- | --- | --- | --- | --- | --- | --- | --- | --- | --- |
| Dose-dependent effect | – | – | – | – | – | – | – | – | – | – | – | – | – | – | – | – | – | – | CC(C)[C@H]1CC[C@H](C)C[C@@H]1O |
| Dose-dependent effect | 0.65 | 0.41 | 0.53 | 1.16 | 0.08 | 0.15 | 0.61 | 0.08 | 0.09 | 0.1 | 0.13 | 0.09 | 1.03 | 0.23 | 0.09 | 0.34 | 0.12 | 0.92 | CC(C)[C@@H]1CC[C@@H](C)C[C@H]1O |
